Consider seven compounds from US20260297035A1, “PROTEIN KINASE INHIBITORS AND USES THEREOF” (DELiver Therapeutics, Inc., priority 2023, published 2026).

Counter-ions that a name gives are not always drawn.

The test system of one data set is TEC. The note with it: control inhibitor; Tracer 178 at 1 nM; cited from earlier work.
For the next data set, the system named is DDR2-T654M. The note with it: control inhibitor; Tracer 178 at 100 nM; cited from earlier work.
A further data set has as its target ABL1(wt) (Homo sapiens, UniProt P00519). The note with it: control inhibitor; Tyr 02; ATP 10 μM; cited from earlier work.
A further data set relates to BTK. The note with it: control inhibitor; Tyr 01; ATP 25 uM; cited from earlier work.
The subject of the next data set is ABL2 (Arg). The note with it: control inhibitor; Tyr02; ATP 25 uM; cited from earlier work.
The next data set relates to SRC. The note with it: control inhibitor; Tyr 02; ATP 50 uM; cited from earlier work.
The test system of a further data set is SRC-N1. The note with it: control inhibitor; Tyr 02; ATP 50 uM; cited from earlier work.
A further data set concerns LCK. The note with it: control inhibitor; Tyr 02; ATP 50 uM; cited from earlier work.
The next data set has as its system IMR90 fibroblasts, IL-6. As to the kind of experiment: Senomorphic activity: IL-6 reduction (ELISA) in senescent IMR90 fibroblasts. It counts as cell-based, human. The note with it: for IL-6 reduction potency compared with pacritinib: compared with control drug pacritinib. As for the experimental part:
Senomorphic activity of compounds were assessed by determining whether the compounds could inhibit the senescence-associated secretory phenotype (SASP) in senescent cells, which is associated with overproduction and secretion of pro-inflammatory factors. Although many of these factors are associated primarily with macrophages and monocytes, they can also be made by a variety of senescent and activated cell types, such as fibroblasts. Specifically, IMR90 fibroblasts are known to overproduce these factors, especially when rendered senescent.
(§1) In the assay, IMR90 fibroblasts were plated at a density of 3E6 cells in a T175 tissue culture (TC)-treated flask. The flasks were placed into a tissue culture incubator and cells were allowed to adhere to the bottom of the wells for 24 hours. After cell adherence, the TC-treated flasks containing the cells were placed into a MultiRad225 X-ray irradiator, where cells were exposed to 10 grays (Gy) of ionizing […] irradiation. After irradiation, flasks were returned to the tissue culture incubator for 7 days, refreshing the cell media every 3 days.
(§2) After the 7-day incubation period that allowed full senescence transformation, cells were detached from the TC-treated flasks using 0.25% trypsin-EDTA solution. Cells were then split, and two experiments were conducted simultaneously: (1) verification of senescence induction via β-galactosidase staining (a senescent cell marker) and (2) analysis of senomorphic activity of compounds.
For verification of senescence induction, 2.5E4 cells were plated in TC-treated 6-well plates. After overnight adherence to the TC-plates, cells were fixed and stained for β-galactosidase accumulation following the manufacturer's standard protocol (e.g., Millipore Sigma, Senescence Cells Histochemical Staining Kit, CS0030-1KT). Brightfield microscopy was used to image the cells and ImageJ software was used to calculate the percentage of senescent cells per well. Non-irradiated IM90 fibroblasts were used as a non-senescent control.
To test the senomorphic activity of compounds, 1E4 cells were plated in 96-well plates. After overnight adherence to the 96-well plates, compounds were added in half-log dilutions to the wells containing the cells. Compounds that were effective inhibitors of JAK2 and were not effective inhibitors of JAK1 were assayed (JAK2 selective inhibitors). Twenty-four hours after compounds were added, cell culture media was collected and analyzed by various enzyme linked immunosorbent assays (ELISAs) for the expression of SASP-associated cytokines, including IL-6, TGF-beta, and TNF-alpha. The manufacturer's protocol was followed for ELISA analysis (e.g., Abcam, Human IL-6 ELISA kit, ab178013). Cytokine levels were compared to untreated controls and reduction of cytokine production was plotted and calculated using GraphPad Prism analysis software.

A short description of data set [1]: Relative viability (CellTiterGlo) of senescent IMR90 fibroblasts. Type of data set: cell-based, human. The note with it: human, senescent imr90 fibroblasts. As for the experimental part: as §1, §2
(§3) Cells also were measured for relative viability to generate cytotoxicity curves associated with the varying concentrations of compounds. […] LD50 values were measured by normalizing luminescence intensity to the lowest drug concentration. GraphPad Prism was used to plot and calculate LD50 values from the cytotoxic kill curves. Curves were fit to a non-linear regression model, with compound concentration vs. response and variable slope (four parameters).
In general terms: Cellular ATP, detected with luciferase, serves as a proxy for viable cell number.

A further data set deals with IMR90 fibroblasts. The data set is described as above. Type of data set: cell-based, human. The note with it: at IL-6 reducing concentrations. As for the experimental part:
as §1, §2, §3

The subject of the next data set is JAK2. The note with it: cited from earlier work.
In the next data set the test system is ABL1 F317L. The note with it: control inhibitor; Tyr 02; ATP 10 μM; cited from earlier work.
For the next data set, the system named is EPHA1. The note with it: control inhibitor; Tyr02; ATP 25 uM; cited from earlier work.
In a further data set the test system is EPHA5. The note with it: control inhibitor; Tyr 01; ATP 150 uM; cited from earlier work.
The next data set deals with EPHB2. The note with it: control inhibitor; Tyr 02; ATP 75 uM; cited from earlier work.
In another data set the test system is TXK. The note with it: control inhibitor; Tyr 06; ATP 100 uM; cited from earlier work.
The subject of the next data set is ROS1. The note with it: control inhibitor; Tyr 01; ATP 50 uM; cited from earlier work.
Another data set has as its system RET. The note with it: control inhibitor; Tyr 02; ATP 10 uM; cited from earlier work.
Another data set has as its system RET-V804E. The note with it: control inhibitor; Tyr 04; ATP 50 uM; cited from earlier work.
Another data set concerns PTK2B (FAK2). The note with it: control inhibitor; Tyr 01; ATP 5 uM; cited from earlier work.
A further data set concerns RET-V804M. The note with it: control inhibitor; Tracer 236 at 5 nM; cited from earlier work.
A further data set deals with RET-M918T. The note with it: control inhibitor; Tracer 236 at 10 nM; cited from earlier work.
The next data set concerns TNK2 (ACK). The note with it: control inhibitor; Tracer 236 at 30 nM; cited from earlier work.

Chain of ABL1(wt) (P00519 with tags, fused parts or gaps): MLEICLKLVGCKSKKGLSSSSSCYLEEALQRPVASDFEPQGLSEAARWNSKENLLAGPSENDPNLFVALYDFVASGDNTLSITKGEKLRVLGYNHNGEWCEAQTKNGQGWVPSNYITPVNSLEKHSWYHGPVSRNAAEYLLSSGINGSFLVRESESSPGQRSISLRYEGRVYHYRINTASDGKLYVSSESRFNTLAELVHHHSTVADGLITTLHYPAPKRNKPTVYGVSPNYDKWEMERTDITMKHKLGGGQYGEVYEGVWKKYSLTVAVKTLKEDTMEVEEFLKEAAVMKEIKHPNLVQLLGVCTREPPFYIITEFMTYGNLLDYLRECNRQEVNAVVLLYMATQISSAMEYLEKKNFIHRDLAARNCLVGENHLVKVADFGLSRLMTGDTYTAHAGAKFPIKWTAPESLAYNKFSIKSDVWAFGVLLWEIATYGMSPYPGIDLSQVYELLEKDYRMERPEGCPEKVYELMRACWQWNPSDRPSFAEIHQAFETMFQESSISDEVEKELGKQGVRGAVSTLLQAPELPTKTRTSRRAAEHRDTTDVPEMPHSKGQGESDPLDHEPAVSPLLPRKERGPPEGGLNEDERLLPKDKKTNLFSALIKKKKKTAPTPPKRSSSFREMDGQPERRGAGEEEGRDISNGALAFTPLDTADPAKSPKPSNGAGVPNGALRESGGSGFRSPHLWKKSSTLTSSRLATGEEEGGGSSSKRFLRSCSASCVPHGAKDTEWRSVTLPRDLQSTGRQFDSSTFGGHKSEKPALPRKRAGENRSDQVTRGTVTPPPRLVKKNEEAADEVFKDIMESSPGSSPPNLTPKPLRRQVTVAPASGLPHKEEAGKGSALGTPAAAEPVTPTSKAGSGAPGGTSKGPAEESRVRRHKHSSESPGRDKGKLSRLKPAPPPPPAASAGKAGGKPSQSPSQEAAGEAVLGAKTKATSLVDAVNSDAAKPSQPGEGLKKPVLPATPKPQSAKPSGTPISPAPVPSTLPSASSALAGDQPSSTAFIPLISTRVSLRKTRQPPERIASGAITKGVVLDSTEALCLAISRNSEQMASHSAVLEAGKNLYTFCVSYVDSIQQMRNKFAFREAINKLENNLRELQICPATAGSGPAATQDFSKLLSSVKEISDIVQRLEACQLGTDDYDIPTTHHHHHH

What is called IC50 is the point on the concentration scale where inhibition reaches its midpoint. Take `Cc1nc(Nc2ncc(C(=O)Nc3c(C)cccc3Cl)s2)cc(N2CCN(CCO)CC2)n1` [dasatinib]: the IC50 was […] in the data set with TEC and 139 nM in the data set on DDR2-T654M.

For the compound `COc1cc2ncnc(Nc3cccc(Cl)c3)c2cc1OC` [Tyrphostin AG1478], the IC50 is 326 nM on ABL1(wt); 1800 nM in the data set with BTK; 731 nM with ABL2 (Arg); 1650 nM with SRC; 1050 nM with SRC-N1; 631 nM with LCK.

Broadly, the viability is the share of living cells, or the viability signal relative to a control. Turning to `C=CC(=O)Nc1cc(Nc2ncc3cccc(-c4ccc(F)cc4OC(C)C)c3n2)ccc1C` [Cmpd53, N-(5-((8-(4-fluoro-2-isopropoxyphenyl)quinazolin-2-yl)amino)-2-methylphenyl)acrylamide], in the data set on IMR90 fibroblasts, IL-6, the “IL-6 reduction (in words)” value was “potent IL-6 reduction at sub-toxic drug levels” and the “IL-6 reduction potency compared with pacritinib” value is reported as “more potent than the control drug pacritinib”. For the same compound, the inhibition at 0.0008 µM in the data set on IMR90 fibroblasts, IL-6 (Homo sapiens, IMR-90, 0.8 nM, 24 hours, read-out: IL-6 production reduction) is 82.2%. Moreover, the inhibition at 0.8 µM in the data set on IMR90 fibroblasts, IL-6 (Homo sapiens, IMR-90, 800 nM, 24 hours, read-out: IL-6 production reduction) was found to be 82.9%. Also, the viability in data set [1] (at 0.8 nM and 800 nM) stood at 100%. In addition, the “cell toxicity (in words)” value in the data set on IMR90 fibroblasts is listed as “without cell toxicity”.

For `C[C@@H]1CCN(C(=O)CC#N)C[C@@H]1N(C)c1ncnc2[nH]ccc12` [tofacitinib], the JAK2 selectivity result in the data set on JAK2 was “not selective inhibitors of JAK2 PK”.

Take `N#CC[C@H](C1CCCC1)n1cc(-c2ncnc3[nH]ccc23)cn1` [ruxolitinib]: in the data set with JAK2, the JAK2 selectivity result was “not selective inhibitors of JAK2 PK”.

With `CN[C@@H]1C[C@H]2O[C@@](C)([C@@H]1OC)n1c3ccccc3c3c4c(c5c6ccccc6n2c5c31)C(=O)NC4` [Staurosporine], the IC50 in the data set on ABL1 F317L was 214 nM; with EPHA1, […]; in the data set on EPHA5 it was […]; in the data set on EPHB2 it was […]; in the data set with TXK it was […]; in the data set with ROS1, […]. Moreover, the IC50 in the data set on RET is […]; in the data set with RET-V804E, 2.29 nM; in the data set on PTK2B (FAK2) it was 12 nM; with RET-V804M, 1.02 nM; in the data set on RET-M918T, 3.8 nM; in the data set on TNK2 (ACK), […].

Take `Cc1ccc(Nc2ncc3cccc(-c4ccc(F)cc4OC(C)C)c3n2)cc1N` [Cmpd51, N1-(8-(4-fluoro-2-isopropoxyphenyl)quinazolin-2-yl)-4-methylbenzene-1,3-diamine hydrochloride]: in the data set on IMR90 fibroblasts, IL-6, the “IL-6 reduction (in words)” value is listed as “potent IL-6 reduction at sub-toxic drug levels” and the “IL-6 reduction potency compared with pacritinib” value is given as “more potent than the control drug pacritinib”. The inhibition at 0.0004 µM with IMR90 fibroblasts, IL-6 (Homo sapiens, IMR-90, 0.4 nM, 24 hours, read-out: IL-6 production reduction) stood at 67.5%. Also, the inhibition at 1.25 µM in the data set with IMR90 fibroblasts, IL-6 (Homo sapiens, IMR-90, 1250 nM, 24 hours, read-out: IL-6 production reduction) came out at 71.6%. In addition, the viability in data set [1] (at 0.4 nM and 1250 nM) turned out to be 100%. Moreover, in the data set on IMR90 fibroblasts, the “cell toxicity (in words)” value is recorded as “without cell toxicity”.
